Results on three molecules are retold here after patent US11091740B2, “Composition for inducing dedifferentiation into cancer stem cells comprising ribosome-activating inhibitor as active ingredient, cancer organoid culture method and anticancer drug screening platform based thereon” (priority 2016, dated 2021).

Experiment [1] deals with colon cancer cell lines. Kind of experiment: Spheroid culture with ribosome-inactivating stress exposure, CD44/CD133 flow cytometry. It counts as cell-based. Conditions: RIS-1 10 ng/mL or RIS-2 50 ng/mL pretreated for 6 hours, spheroid cultured 6 days, compared with control. How it is done: Colon cancer cell lines were purchased from ATCC (Manassas, USA), a cell line distribution company. Cells were maintained with RPMI medium supplemented with 10% (v/v) fetal bovine serum (FBS) and 5% mixed antibiotics (50 units/mL penicillin and […] streptomycin) (welgene, Daegu, South Korea) in a 5% CO2-humidified incubator at 37° C. […] First, the cultured spheroid cells were dissociated into single cells by trypsinization, washed with phosphate buffer solution, incubated with FITC-conjugated CD44 (BD pharmingen) and APC-conjugated CD133 (MACS, Miltenyi Biotec) antibodies for 15 min, and then the expression of CD44 and CD133 positive cells was analyzed by flow cytometry (Becton Dickinson FACS Canto Il BD Bioscience, San Jose, Calif., USA).
A general note: A flow cytometer gives signals particle by particle.

The subject of experiment [2] is CMT-93 mouse colorectal cancer cell line. Briefly: Allograft of RIS-2 pretreated cancer cells, epithelial mesenchyme transition markers by immunohistochemistry. It counts as in vivo. Conditions: cells pretreated with RIS-2 50 ng/mL for 6 hours, subcutaneous in C57BL/6 mice, 5-FU i.p. on day 7, tumors excised 24 h later. The method, then:
Cancer stem cells have been identified as a major cause of cancer progression, metastasis, recurrence, and resistance to anticancer drugs. In order to investigate the in vivo activity of cancer stem cells produced by the exposure to ribosome-inactivating stress, epithelial mesenchyme transition (EMT) phenomenon, which is an in vivo phenotype representing the characteristics of cancer stem cells was examined. The in vivo activity of cancer stem cells was determined by the degree of epithelial mesenchyme transition, which is verified by the decrease of E-cadherin, an epithelial cell marker and the increase of the protein expression of N-cadherin and vimentin, mesenchymal marker. For this purpose, in vivo experiment using allografts of cancer cells was performed. The CMT-93 mouse colorectal cancer cell line was cultured in DMEM (Welgene, Daegu, South Korea) supplemented with 10% (v/v) fetal bovine serum (FBS) and 5% mixed antibiotics (50 units/mL penicillin, […] streptomycin) in a 5% CO2, 37 humidified incubator at 37° C. CMT-93 cells (5×10^6) pretreated with RIS-2 (50 ng/mL) for 6 hours were resuspended with 200 μL of PBS and injected subcutaneously into a 14-week-old male C57BL/6 mice. Seven days later, […] anticancer drug 5-FU was intraperitoneally injected and tumors were excised surgically 24 h later. Solid tumors were obtained by immunohistochemistry using E-cadherin (1:200, BD Science), N-cadherin (1:200, BD Science), vimentin (1:200, Cell signaling) specific antibodies. The excised solid tumors were fixed in 4% paraformaldehyde, embedded in paraffin, and sectioned to prepare slice slide specimens. After dehydration and antibody binding, spatial expression of protein expression in tissues was investigated by 3,3-diaminobenzidine (DAB) substrate reaction and relative expression of DAB versus hematoxylin-positive cells was quantified by a tissue analysis software (Histo Quest, TissueGnotics).

In experiment [3] the test system is epithelial cancer cells. Kind of experiment: Single versus repeated exposure to ribosome-inactivating stress, CD44/CD133 flow cytometry. The format is cell-based. Conditions: for cancer stem cells (CD44 and CD133) after a first temporary exposure: exposed once for 24 hours, spheroid cultured in stem cell medium, sub-cultured three times; for CD44 and CD133 positive stem cell groups in chronic exposure: exposure in each subculture, total of 3 exposures. How it is done:
To reconfirm that ribosome-inactivating stress (RIS1, RIS2) is a key factor for inducing the dedifferentiation of epithelial cancer cells, the cells were exposed to ribosome-inactivating stress once for 24 hours, spheroid cultured in a stein cell culture medium for 6 days. In the experimental groups which sub-cultured in three times; and sub-cultured while exposing to the ribosome-inactivating stress on the optimum medium for cancer stem cell in each subculture (total of 3 exposures), cancer stem cells were compared quantitatively by flow cytometry with CD44 and CD133 as the marker thereof.

The test system of experiment [4] is Colorectal cancer cell lines. Briefly: Cell line-based cancer organoid, CD44 (+) cells by flow cytometry. Conditions: RIS-1 10 ng/mL or RIS-2 50 ng/mL pretreated for 6 hours, spheroid, organoid culture 12 days. The method, then:
Colorectal cancer cell lines were pretreated with ribosome-inactivating stress, RIS-1 of 10 ng/mL or RIS-2 of 50 ng/mL for 6 hours to form spheroid. Cancer organoid is formed by using spheroid induced from cancer stem cells increased by the ribosome-inactivating stress. A cancer organoid culture technique was developed from cancer stem cells increased by ribosome-inactivating stress. 100 μl of a culture medium containing 200-400 spheroid cells of about 100 μm in size among the cultured spheroids was mixed with an equal amount of a ice-cold matrigel (BD #35424, USA) and divided as a dome in a 24-well culture dish preheated in the cell incubator. Organoid formation (changes in crypt-villus domain production, morphology and size changes, etc.) is monitored by filling the organoid culture medium (STEMCELLS) so as not to reach the cell-matrigel dome and incubating for 12 days (FIG. 7A). The final cultured organoid is tested by immunohistochemistry and flow cytometry. After washing with ice-cold PBS, the organoid was separated from the matrigel and fixed with 0.1% tritonX-100, 4% PFA and immunostained. E-cadherin, an epithelial cell factor, mucin-2, a goblet cell marker for differentiated intestinal cells and F-actin for confirming cell structure formation are examined to confirm the formation of an intestinal organoid (FIG. 7A). […]

Experiment [5] has as its system Cancer stem cell cultured spheroid. Kind of experiment: 5-FU response of cancer stem cell cultured spheroid, PI/AnnexinV flow cytometry. The format is cell-based. Conditions: 5-FU 375 μM for 48 hours. The method, then: The drug effect close to human physiological activity can be confirmed by monitoring the anticancer drug response of heterogeneous cancer cells containing a plurality of cancer stem cells induced by the exposure of ribosome-inactivating stress. […] Cancer stem cell cultured spheroid were treated with 5-FU (375 μM) for 48 hours and apoptotic cells were quantified by flow cytometry using propidium iodide (PI) and AnnexinV-FITC (1:200) as markers. The number of apoptotic cells positive for both PI and AnnexinV for 5-FU was higher in the control (−) group, but the drug reactivity was better, but those in the general spheroid culture (DMSO) were decreased.

As for `CC1=C[C@H]2O[C@@H]3[C@H](O)C[C@](C)([C@@]2(CO)[C@H](O)C1=O)[C@]31CO1` [RIS-2, deoxynivalenol], the “CD44 and CD133 positive cells representing cancer stem cell group” value in experiment [1] was “significantly increased”. Besides, in experiment [2], the “epithelial cell marker E-cadherin in solid tumors” value is listed as “decreased”, the “mesenchymal cell marker N-cadherin in solid tumors” value was “significantly increased” and the “mesenchymal cell marker vimentin protein in solid tumors” value was “significantly increased”. Moreover, in experiment [3], the “cancer stem cells (CD44 and CD133) after a first temporary exposure” value is given as “maintained continuously”; the “CD44 and CD133 positive stem cell groups in chronic exposure” value is recorded as “increased significantly”. Also, the “CD44 (+) cancer stem cell group in cultured cancer organoid” value in experiment [4] is given as “significantly increased”.
Regarding `O=c1[nH]cc(F)c(=O)[nH]1` [5-FU, fluorouracil], the “number of apoptotic cells positive for both PI and AnnexinV” value is given as “higher” in experiment [5] (control (−) group) and “decreased” in experiment [5] (general spheroid culture (DMSO)). In experiment [5] (spheroid containing cancer stem cell group induced by ribosome-inactivating stress), the “drug reactivity (apoptotic cells)” value was “further reduced”.
As to `COc1ccc(C[C@H]2NC[C@H](O)[C@H]2OC(C)=O)cc1` [RIS-1, anisomycin], the “CD44 and CD133 positive cells representing cancer stem cell group” value in experiment [1] is “significantly increased”. Also, in experiment [3], the “cancer stem cells (CD44 and CD133) after a first temporary exposure” value was “maintained continuously”; the “CD44 and CD133 positive stem cell groups in chronic exposure” value was “increased significantly”. The “CD44 (+) cancer stem cell group in cultured cancer organoid” value in experiment [4] was “significantly increased”.
